Columns and labels:
[1] = test system: lymphocytes; assay: Ex vivo treatment of human blood, TMRE mitochondrial membrane potential of lymphocytes by flow cytometry; format: cell-based; settings: whole blood treated ex vivo with 50 μM before staining with SYTO 13 and TMRE
Protocol: Furthermore, one fraction of blood was treated ex vivo with carbonyl cyanide 3-chlorophenylhydrazone (CCCP), a toxic chemical that is known to disrupt mitochondrial membrane potential.
Blood from a finger prick (approximately 150 μl) was collected into a tube containing 10 μl heparin solution (500 Units/ml; approximately 6% dilution). One 5 μl aliquot of heparinized whole blood was added to a tube with 1 ml Hank's Balance Salt Solution containing SYTO®13 at 5 nM, TMRE at 100 nM, and 20,720 counting beads per ml (beads from Molecular Probes, cat. no. C36950) (i.e., blood diluted another 200-fold). A second fraction of blood was treated with 50 μM CCCP before being stained with SYTO® and TMRE as above. After staining for 30 minutes at room temperature, the samples were analyzed with a FACSCalibur flow cytometer providing 488 nm excitation.
Acquisition was triggered with a FL1 threshold that was set sufficiently high so as to exclude platelets, mature erythrocytes and reticulocytes, thereby restricting acquisition to nucleated cells. By expressing light scatter in linear scale, it was possible to focus on particular subpopulations, for instance lymphocytes that are low in forward and side scatter relative to other nucleated cells (FIG. 4A). […]

[2] = test system: lymphocytes; assay: Radioprotectant evaluation using mouse blood: lymphocytes; format: in vivo, C57BL/6J mice; settings: 400 mg/kg ip, 30 minutes prior to 1 Gy gamma rays; blood collected 46±3 hrs post-irradiation
Protocol: In this experiment, one group of five C57BL/6J mice was sham irradiated, whereas two other groups of five mice were exposed to 1 Gy gamma rays. While one group of irradiated mice was injected with vehicle, the other was injected with the radioprotectant agent amifostine (400 mg/kg injected ip, 30 minutes prior to irradiation). […] 5 μl of whole blood were added to tubes containing 1 ml HBSS with SYTO®13 at 10 nM, TMRE at 100 nM, and 20,720 counting beads per ml (beads from Molecular Probes, cat. no. C36950). After 30 minutes at room temperature, the samples were moved to 4° C. and analyzed with a FACSCalibur flow cytometer providing 488 nm excitation. […] Furthermore, with the incorporation of the TMRE dye, it was possible to enumerate the percentage of lymphocytes that express dysfunctional mitochondrial membranes.

[3] = test system: reticulocytes; assay: Radioprotectant evaluation using mouse blood: reticulocytes; format: in vivo, C57BL/6J mice; settings: 400 mg/kg ip, 30 minutes prior to 1 Gy gamma rays; blood collected 46±3 hrs post-irradiation
Protocol: In this experiment, one group of five C57BL/6J mice was sham irradiated, whereas two other groups of five mice were exposed to 1 Gy gamma rays. […] 5 μl of whole blood were added to tubes containing 1 ml HBSS with SYTO®13 at 10 nM, TMRE at 100 nM, and 20,720 counting beads per ml (beads from Molecular Probes, cat. no. C36950). After 30 minutes at room temperature, the samples were moved to 4° C. and analyzed with a FACSCalibur flow cytometer providing 488 nm excitation. In the first round of analysis, a forward scatter threshold was used to trigger data acquisition. With the trigger channel set sufficiently low, platelets as well as all blood cell types were acquired. Similar to thiazole orange, SYTO®13 dye in conjunction with light scatter signals was capable of resolving mature erythrocytes, reticulocytes, nucleated cells, platelets, and reticulated platelets. […] Reticulocytes can thus be quantified as a percentage of all erythrocytes, and reticulated platelets can be quantified as a percentage of all platelets. Furthermore, with the incorporation of the TMRE dye, it was possible to enumerate the percentage of reticulocytes that express dysfunctional mitochondrial membranes.

| Compound | TMRE-associated fluorescence of lymphocytes / incidence of TMRE-negative lymphocytes [1] | TMRE-associated fluorescence of lymphocytes / incidence of TMRE-negative lymphocytes ([1]; listed as carbonyl cyanide 3-chlorophenylhydrazone) | protection against decrease of percentage of lymphocytes by 1 Gy irradiation [2] | reticulocyte effects of 1 Gy irradiation (decrease of reticulocytes, increase in percentage of reticulocytes with dysfunctional mitochondria) [3] |
| --- | --- | --- | --- | --- |
| N#CC(C#N)=NNc1cccc(Cl)c1 [CCCP, carbonyl cyanide 3-chlorophenylhydrazone] | increased incidence of events falling into this region | low TMRE-associated fluorescence |  |  |
| NCCCNCCSP(=O)(O)O [amifostine] |  |  | no appreciable protection | ameliorated |

From patent publication US8535226B2, “Method for measuring in vivo hematotoxicity with an emphasis on radiation exposure assessment” (Litron Laboratories, Ltd., priority 2007, dated 2013)
